Data published in PubChem BioAssay (NCI).
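Briefly, cells in 96-well plates were exposed to five compound concentrations for 48 h, and endpoints were estimated by linear interpolation. GI50 is the concentration that inhibits growth by half. TGI: concentration producing complete growth inhibition.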

Columns and labels:
Assay in all cases: NCI tumour cell line growth inhibition, 48 h
[1] = system: RXF-631 renal
[2] = system: BT-549 breast
[3] = system: LXFL 529 NSCLC
[4] = system: MDA-N
[5] = system: M19-MEL melanoma
[6] = system: SNB-78 CNS
[7] = system: HOP-18 NSCLC
[8] = system: DLD-1 colon
[9] = system: P388/ADR leukemia
[10] = system: T-47D breast
[11] = system: SN12K1 renal
[12] = system: P388 leukemia

Row | SMILES | TGI [1] [µM] | TGI [2] [µM] | TGI [3] [µM] | TGI [4] [µM] | TGI [5] [µM] | TGI [6] [µM] | TGI [7] [µM] | TGI [8] [µM] | TGI [9] [µM] | GI50 [2] [µM] | GI50 [10] [µM] | TGI [10] [µM] | TGI [11] [µM] | GI50 [4] [µM] | TGI [12] [µM]
1 | COc1ccc(CCc2cc(OC)c(OC)c(OC)c2)cc1 | 4.45 | > 100 | 21 | 0.021 | > 100 | 0.0976 | > 100 | > 100 |  |  |  |  |  |  | 
2 | CCCCCCCCCCCCCc1nn[nH]n1 | 29.3 |  | 31.2 |  | 36.8 | 43.6 | 28.2 | 31.8 |  |  |  |  |  |  | 
3 | COc1ccccc1NC(=O)C(CC(C(=O)Nc1ccccc1OC)/C(C)=N/Nc1ccc([N+](=O)[O-])cc1[N+](=O)[O-])/C(C)=N/Nc1ccc([N+](=O)[O-])cc1[N+](=O)[O-] (stereo not given) | > 100 |  | > 100 |  | > 100 | > 100 | > 100 | > 100 |  |  |  |  |  |  | 
4 | C/C(CC(=O)N(C(C)C)C(C)C)=N\NC(=O)c1ccncc1 | > 100 |  | > 100 |  | > 100 | > 100 | > 100 | > 100 |  |  |  |  |  |  | 
5 | Nc1ccc(S(=O)(=O)Nc2cnc3c(Cl)cccc3n2)cc1 |  | > 750 |  | > 566 | > 625 | 528 | > 750 | > 655 | > 750 | 220 | 48.2 | > 750 | 472 | > 66.9 | > 750
6 | FC1OC2OC1C(OCc1ccccc1)C(OCc1ccccc1)C2OCc1ccccc1 (stereo not given) | > 100 |  | > 100 |  | > 100 | > 100 | 96.4 | > 100 |  |  |  |  |  |  | 
